The subject of data set [1] is Human RSV-A (“Long” strain). The data set can be described thus: RSV-A assay: inhibition of cytopathic effect in Hep-2 cells, ATPlite readout. The data set is classed as cell-based, Human respiratory syncytial virus (HRSV). As to conditions: human respiratory syncytial virus, HEp-2, 120 h, read-out: Human RSV-A (“Long” strain) EC50. A digest of the protocol:
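Cytopathic-effect protection was read as ATP content (ATPlite luminescence) after a 5-day incubation. Setup: Hep-2 cells at 8,000 per well, RSV-A Long at MOI 0.1, 2-fold serial compound dilutions in duplicate. Cytotoxicity (CC50) was measured on an identical uninfected plate run in parallel.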

Data set [2] is described as follows: Cytotoxicity on parallel plate without virus, ATPlite readout. It counts as cell-based. As to conditions: human, Hep-2 cells (no virus), Hep-2 cells without virus, 5-day incubation. On the procedure:
Following extensive parameter testing, the final assay is run as follows: Hep-2 cells are seeded into the inner 60 wells of a 96-well plate at 8,000 cells per well in a volume of 50 μL using Growth Media (DMEM without phenol red, 1% L-Glut, 1% Penn/Strep, 1% nonessential amino acids, 10% heat-inactivated FBS). 2-fold serial dilutions of control and test compounds are added to the wells in duplicate in a total volume of 25 μL. Viral stock is then added to the wells at a multiplicity of infection (MOI) of 0.1 in a volume of 25 μL, bringing the total volume of each well to 100 μL. The MOI is calculated using the PFU/mL, or TCID50 if unavailable. Each 96-well plate has a control column of 6 wells with cells and virus but no compound (negative control, max CPE), a column with cells but no compound or virus (positive control, minimum CPE), and a column with no cells or virus or compound (background plate/reagent control). The control wells with cells but no virus are given an additional 25 uL of growth media containing an equal quantity of sucrose as those wells receiving the viral stock in order to keep consistent in media and volume conditions. The outer wells of the plate are filled with 125 μL of moat media (DMEM, 1% Penn/Strep) to act as a thermal and evaporative moat around the test wells. Following a 5-day incubation period, the plates are read using ATPlite (50 uL added per well), which quantifies the amount of ATP (a measure of cell health) present in each well. Assay plates are read using the Envision luminometer. In parallel, cytotoxicity is examined on an additional 96-well plate treated in an identical manner, but substituting the 25 μL of viral stock for 25 μL of growth media. […] EC50 ranges are as follows: A<0.4 μM; B 0.4-0.8 μM; C>0.8 μM and CC50 ranges are as follows: A>50 μM; B 10-50 μM; C<10 μM.
A general note: ATP-based viability assays read luminescence as a measure of living cells.

For data set [3], the system named is RSV-B, genotype B, strain 9320. The data set can be described thus: RSV-B assay: A549 cells infected with RSV-B, qPCR or ATPlite readout. As to conditions: human respiratory syncytial virus, A549, read-out: Human RSV-B EC50. The data set is classed as cell-based, Human respiratory syncytial virus (HRSV). An excerpt:
Hep-2 cells, (originally derived from tumors grown in irradiated-cortisonised weanling rats that had been injected with epidermoid carcinoma tissue from a person's larynx, but later found to be indistinguishable from HeLa cells by PCR DNA analysis), were used for the culturing of genotype B, strain 9320. Flasks were inoculated with RSV-B and viral stocks were collected once cytopathic effect (CPE) was greater than […]. Viral stocks in 25% o sucrose media were snap frozen using liquid nitrogen to increase viral stability. Viral stock titers were quantified by tissue culture infectious dose 50% o (TCID50) using 8,000 cells per well and 5-fold viral dilutions across a 96-well plate, cultured for 4 days. Viral stock titers were also quantified by a plaque forming unit assay, as described elsewhere.
The assay is run as follows: A549 cells (originally derived through explant culture from a person's carcinomatous lung tissue) are seeded into the inner 60 wells of a 96-well plate at 3,000 cells per well in a volume of 50 μL using A549 growth media (F-12K Media, 1% Penn/Strep, 1% nonessential amino acids, 10% heat-inactivated FBS). 2-fold serial dilutions of control and test compounds are added to the wells in duplicate in a total volume of 25 μL. Viral stock is then added to the wells at a multiplicity of infection (MOI) of 0.5 in a volume of 25 μL, bringing the total volume of each well to 100 μL. The MOI is calculated using the PFU/mL, or TCID50 if unavailable. Each 96-well plate has a control column of 6 wells with cells and virus but no compound (negative control, max CPE), a column with cells but no compound or virus (positive control, minimum CPE), and a column with no cells or virus or compound (background plate/reagent control). The control wells with cells but no virus are given an additional 25 uL of growth media containing an equal quantity of sucrose as those wells receiving the viral stock in order to keep consistent in media and volume conditions. The outer wells of the plate are filled with 125 μL of moat media (DMEM, 1% Penn/Strep) to act as a thermal and evaporative moat around the test wells. 6 days post infection, the plates are read using qPCR or ATP lite (50 uL added per well), which quantifies the amount of ATP (a measure of cell health) present in each well. Assay plates treated with APTlite are read using the Envision luminometer. […] EC50 ranges are as follows: A<0.4 μM; B 0.4-0.8 μM; C>0.8 μM.
In general terms: Quantitative PCR measures a nucleic acid by following its amplification.

Turning to `COCc1cccc(-c2nnc(NC3N=C(c4ccccc4)c4ccccc4NC3=O)o2)n1` (stereo not shown) [Example 64], the EC50 (as a rule, the concentration giving half of the maximal effect) in data set [1] is above 0.8 µM. Besides, the CC50 (usually the concentration giving 50% cytotoxicity) at 5 days in data set [2] is above 50 µM.
The matching figures for `Cn1nccc1-c1nnc(NC2N=C(c3ccccc3)c3ccccc3NC2=O)o1` (stereo not shown) [Example 65]: above 0.8 µM and above 50 µM.
Taken in the same sequence, the figures for `Cn1cc(-c2nnc(NC3N=C(c4ccccc4)c4ccccc4NC3=O)o2)cn1` (stereo not shown) [Example 66] were 0.4 to 0.8 µM and above 50 µM.
The matching figures for `Cn1ccnc1-c1nnc(NC2N=C(c3ccccc3)c3ccccc3NC2=O)o1` (stereo not shown) [Example 67]: above 0.8 µM and above 50 µM.
Take `Cn1cnc(-c2nnc(NC3N=C(c4ccccc4)c4ccccc4NC3=O)o2)c1` (stereo not shown) [Example 68]: in data set [1], the concentration giving a half-maximal response (EC50) is above 0.8 µM. Besides, the CC50 at 5 days in data set [2] was above 50 µM.
Consider `O=C1Nc2ccccc2C(c2ccccc2)=NC1Nc1nnc(-c2nccs2)o1` (stereo not shown) [Example 69], for which the EC50 in data set [1] is above 0.8 µM. Moreover, the CC50 at 5 days in data set [2] is above 50 µM.
The matching figures for `O=C1Nc2ccccc2C(c2ccccc2)=NC1Nc1nnc(-c2ncco2)o1` (stereo not shown) [Example 70]: above 0.8 µM and above 50 µM.
Taken in the same sequence, the figures for `Cc1ccc(-c2nnc(NC3N=C(c4ccccc4)c4ccccc4NC3=O)o2)o1` (stereo not shown) [Example 71] were above 0.8 µM and above 50 µM.
Taken in the same sequence, the figures for `COCc1ccc(-c2nnc(NC3N=C(c4ccccc4)c4ccccc4NC3=O)o2)o1` (stereo not shown) [Example 72] were above 0.8 µM and above 50 µM.
Consider `CN(C)Cc1ccc(-c2nnc(NC3N=C(c4ccccc4)c4ccccc4NC3=O)o2)o1` (stereo not shown) [Example 73], for which the EC50 in data set [1] was above 0.8 µM. This molecule also gave a CC50 at 5 days in data set [2] above 50 µM.
The matching figures for `Cc1cc(-c2nnc(NC3N=C(c4ccccc4)c4ccccc4NC3=O)o2)on1` (stereo not shown) [Example 74]: above 0.8 µM and above 50 µM.
Take `O=C1Nc2ccccc2C(c2ccccc2)=NC1Nc1nnc(-c2cnco2)o1` (stereo not shown) [Example 75]: in data set [1], the EC50 was above 0.8 µM. The CC50 at 5 days in data set [2] was above 50 µM.
The matching figures for `O=C1Nc2ccccc2C(c2ccccc2)=NC1Nc1nnc(-c2cncs2)o1` (stereo not shown) [Example 76]: above 0.8 µM and above 50 µM.
Taken in the same sequence, the figures for `O=C1Nc2ccccc2C(c2ccccc2)=NC1Nc1nnc(-c2cscn2)o1` (stereo not shown) [Example 77] were 0.4 to 0.8 µM and above 50 µM.
The matching figures for `O=C1Nc2ccccc2C(c2ccccc2)=NC1Nc1nnco1` (stereo not shown) [Example 79]: above 0.8 µM and above 50 µM.
Consider `O=C1Nc2ccccc2C(c2ccccc2)=NC1Nc1nnc(-c2ccc(F)cc2)s1` (stereo not shown) [Example 80], for which the EC50 in data set [1] was above 0.8 µM. In addition, the CC50 at 5 days in data set [2] was above 50 µM.
Taken in the same sequence, the figures for `O=C1Nc2ccccc2C(c2ccccc2)=NC1Nc1nnc(-c2ccccc2)s1` (stereo not shown) [Example 81] were above 0.8 µM and above 50 µM.
Taken in the same sequence, the figures for `N#Cc1ccc(-c2nnc(NC3N=C(c4ccccc4)c4ccccc4NC3=O)s2)cc1` (stereo not shown) [Example 82] were 0.4 to 0.8 µM and above 50 µM.
The matching figures for `O=C1Nc2ccccc2C(c2ccccc2)=NC1Nc1nnc(-c2ccncc2)s1` (stereo not shown) [Example 83]: above 0.8 µM and above 50 µM.
For `O=C1Nc2ccccc2C(c2ccccc2)=NC1Nc1ncc(-c2ccccc2)o1` (stereo not shown) [Example 84], the EC50 in data set [1] is above 0.8 µM. In data set [2], this molecule registered a CC50 at 5 days of 10 to 50 µM.
The matching figures for `O=C1Nc2ccccc2C(c2ccccc2)=NC1Nc1nnc(-c2ccccc2)[nH]1` (stereo not shown) [Example 86]: above 0.8 µM and above 50 µM.
Taken in the same sequence, the figures for `O=C1Nc2ccccc2C(c2ccccc2)=NC1Nc1nc(-c2ccccc2)ns1` (stereo not shown) [Example 87] were above 0.8 µM and 10 to 50 µM.
The matching figures for `O=C1Nc2ccccc2C(c2ccccc2)=NC1Nc1nc(N2CCOCC2)ns1` (stereo not shown) [Example 88]: above 0.8 µM and 10 to 50 µM.
In the case of `O=C1Nc2ccccc2C(c2ccccc2)=NC1Nc1nc(-c2ccccc2)no1` (stereo not shown) [Example 89], in data set [1], the EC50 was above 0.8 µM. The same molecule displayed a CC50 at 5 days in data set [2] of 10 to 50 µM.
Taken in the same sequence, the figures for `O=C1Nc2ccccc2C(c2ccccc2)=NC1Nc1nc(-c2ccccc2)cs1` (stereo not shown) [Example 90] were above 0.8 µM and below 10 µM.
The matching figures for `O=C1Nc2ccccc2C(c2ccccc2)=NC1Nc1cc(-c2ccccc2)ncn1` (stereo not shown) [Example 92]: above 0.8 µM and 10 to 50 µM.
The matching figures for `O=C1Nc2ccccc2C(c2ccccc2)=NC1Nc1cc(N2CCOCC2)ncn1` (stereo not shown) [Example 93]: above 0.8 µM and 10 to 50 µM.
As to `O=C1Nc2ccccc2C(c2ccccc2)=NC1Nc1cc(Oc2ccccc2)ncn1` (stereo not shown) [Example 94], the EC50 in data set [1] was above 0.8 µM. This molecule registered a CC50 at 5 days in data set [2] of 10 to 50 µM.
For the molecule `O=C1Nc2ccccc2C(c2ccccc2)=NC1Nc1ccc(-c2ccccc2)nn1` (stereo not shown) [Example 95], the EC50 was above 0.8 µM in data set [3] and 0.4 to 0.8 µM in data set [1].
`O=C1Nc2ccccc2C(c2ccccc2)=NC1Nc1ccnc(-c2ccccc2)n1` (stereo not shown) [Example 96]: the EC50 in data set [1] is above 0.8 µM. Moreover, the CC50 at 5 days in data set [2] was in the range of 10 to 50 µM.
The matching figures for `O=C1Nc2ccccc2C(c2ccccc2)=NC1Nc1cccn(Cc2ccccc2)c1=O` (stereo not shown) [Example 97]: above 0.8 µM and above 50 µM.
Taken in the same sequence, the figures for `O=C1Nc2ccccc2C(c2ccccc2)=NC1Nc1nc2ccc(Cl)cc2o1` (stereo not shown) [Example 99] were above 0.8 µM and 10 to 50 µM.
For the molecule `O=C1Nc2ccccc2C(c2ccccc2)=NC1Nc1nc2ccccc2o1` (stereo not shown) [Example 100], the EC50 in data set [1] is above 0.8 µM. For the same molecule, the CC50 at 5 days in data set [2] was in the range of 10 to 50 µM.
The matching figures for `O=C1Nc2ccccc2C(c2ccccc2)=NC1Nc1nc2ccccc2s1` (stereo not shown) [Example 101]: above 0.8 µM and 10 to 50 µM.
The matching figures for `O=C1Nc2ccccc2C(c2ccccc2)=NC1Nc1nc2ccc(F)cc2o1` (stereo not shown) [Example 103]: above 0.8 µM and 10 to 50 µM.
Consider `O=C1Nc2ccccc2C(c2ccccc2)=NC1Nc1nc2cc(F)ccc2o1` (stereo not shown) [Example 104], for which the EC50 in data set [1] was above 0.8 µM. Also, the 50% cytotoxic concentration (CC50) at 5 days in data set [2] is 10 to 50 µM.
Consider `O=C1Nc2ccccc2C(c2ccccc2)=NC1Nc1nc2c(F)cccc2o1` (stereo not shown) [Example 105], for which the EC50 in data set [1] was above 0.8 µM. In data set [2], this molecule gave a CC50 at 5 days above 50 µM.
The matching figures for `Cc1ccc2oc(NC3N=C(c4ccccc4)c4ccccc4NC3=O)nc2c1` (stereo not shown) [Example 106]: above 0.8 µM and below 10 µM.
In the case of `O=C1Nc2ccccc2C(c2ccccc2)=NC1Nc1nnc(-c2ccc(N3CCOCC3)cc2)o1` (stereo not shown) [Example 124], the EC50 in data set [3] was below 0.4 µM.
Same read-out and setting: for `O=C1Nc2ccccc2C(c2ccccc2)=NC1Nc1nnc(-c2ccccc2N2CCOCC2)o1` (stereo not shown) [Example 125] the value was 0.4 to 0.8 µM; for `N#Cc1cnc(-c2nnc(N[C@H]3N=C(c4ccccc4)c4ccccc4NC3=O)o2)c(N2CCOCC2)c1` [Example 160], below 0.4 µM.

Source of the values: patent US11390631B1, “Benzodiazepine derivatives as RSV inhibitors” (priority 2015, dated 2022).
